According to PubChem BioAssay (NCI):
“And” between values parts separate entries of the source, which are not always exact repeats. Equal entries are not always repeated.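 Values below derive from 48-hour exposures of cells grown in 96-well plates, with endpoints linearly interpolated between the two concentrations bracketing the appropriate inhibition level. GI50 = concentration required for 50% inhibition of growth. The concentration for full growth arrest is given as TGI.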

Columns and labels:
Assay in all cases: growth of human tumour cells (NCI), 48 h
[1] = tested on: K-562 leukemia
[2] = tested on: CCRF-CEM leukemia
[3] = tested on: UO-31 renal
[4] = tested on: NCI/ADR-RES ovarian
[5] = tested on: MCF7 breast
[6] = tested on: LOX IMVI melanoma
[7] = tested on: A549 NSCLC
[8] = tested on: RPMI-8226 leukemia
[9] = tested on: SK-MEL-2 melanoma
[10] = tested on: MDA-MB-435
[11] = tested on: NCI-H460 lung
[12] = tested on: EKVX NSCLC
[13] = tested on: KM12 colon
[14] = tested on: SF-268 CNS
[15] = tested on: NCI-H522 lung
[16] = tested on: A498 renal
[17] = tested on: UACC-62 melanoma
[18] = tested on: SNB-19 CNS
[19] = tested on: SF-539 CNS
[20] = tested on: HOP-62 NSCLC
[21] = tested on: OVCAR-4 ovarian
[22] = tested on: OVCAR-3 ovarian
[23] = tested on: HOP-92 NSCLC
[24] = tested on: UACC-257 melanoma
[25] = tested on: T-47D breast
[26] = tested on: HCT-116 colon
[27] = tested on: NCI-H226 lung
[28] = tested on: SK-MEL-28 melanoma
[29] = tested on: COLO 205 colon
[30] = tested on: HCT-15 colon
[31] = tested on: OVCAR-8 ovarian
[32] = tested on: SW-620 colon
[33] = tested on: HL-60(TB) leukemia
[34] = tested on: CAKI-1 renal
[35] = tested on: MOLT-4 leukemia
[36] = tested on: MDA-MB-231 breast
[37] = tested on: OVCAR-5 ovarian
[38] = tested on: SF-295 CNS
[39] = tested on: HT29 colon
[40] = tested on: SK-MEL-5 melanoma
[41] = tested on: IGROV1 ovarian
[42] = tested on: DU-145 prostate
[43] = tested on: SK-OV-3 ovarian
[44] = tested on: SNB-75 CNS
[45] = tested on: PC-3 prostate
[46] = tested on: RXF 393 renal
[47] = tested on: M14 melanoma
[48] = tested on: 786-0 renal
[49] = tested on: BT-549 breast
[50] = tested on: ACHN renal
[51] = tested on: SN12C renal
[52] = tested on: U251 CNS
[53] = tested on: TK-10 renal
[54] = tested on: NCI-H23 lung
[55] = tested on: SR leukemia
[56] = tested on: MALME-3M melanoma
[57] = tested on: HCC-2998 colon
[58] = tested on: HS 578T breast

In the case of `COc1cc(O)c2c(c1)/C=C/C[C@H](O)[C@H](O)C(=O)/C=C\C[C@H](C)OC2=O`, the GI50 [1] is reported as 1.11 µM and 2.15 µM, the TGI [1] is reported as 27 µM and 12.3 µM and the GI50 [2] is reported as 1.01 µM and 2.42 µM. The TGI [2] was 11.4 µM and 9.13 µM, the GI50 [3] was 0.237 µM and 0.326 µM and the TGI [3] was 5.42 µM and 11.9 µM. The GI50 [4] was 1.92 µM and 4.11 µM, the TGI [4] was 9.55 µM and 31.5 µM and the GI50 [5] was 0.891 µM and 2.89 µM. The TGI [5] was 4.13 µM and 10.9 µM, the GI50 [6] was 0.477 µM and 1.04 µM and the TGI [6] was 3.59 µM and 4.44 µM. For the same molecule, the GI50 [7] was 4.77 µM and 34.8 µM, the TGI [7] was 33.5 µM and > 100 µM and the GI50 [8] was 0.815 µM and 1.59 µM. The TGI [8] was 4.66 µM and 7.41 µM, the GI50 [9] was 2.61 µM and 2.81 µM and the TGI [9] was 9.12 µM and 13.7 µM. For the same molecule, the GI50 [10] was 0.157 µM and 0.171 µM, the TGI [10] was 6.56 µM and 2.55 µM and the GI50 [11] was 2.29 µM and 3.34 µM. The TGI [11] was 33.5 µM and 17.2 µM, the GI50 [12] was 3.01 µM and 15.3 µM and the TGI [12] was 10.7 µM and 52.2 µM. For the same molecule, the GI50 [13] was 1.54 µM and 5.53 µM, the TGI [13] was 6.87 µM and 24.8 µM and the GI50 [14] was 4.7 µM and 12.8 µM. For the same molecule, the TGI [14] was 33.5 µM and 55.7 µM, the GI50 [15] was 0.357 µM and 2.05 µM and the TGI [15] was 4.01 µM and 12.7 µM. The GI50 [16] was 4.93 µM and 4.48 µM, the TGI [16] was 32.3 µM and 67.7 µM and the GI50 [17] was 0.0173 µM and 0.113 µM. For the same molecule, the TGI [17] was 2.89 µM and 9.52 µM, the GI50 [18] was 5.71 µM and 14.9 µM and the TGI [18] was 23.5 µM and 73.3 µM. The GI50 [19] was 1.92 µM and 3.12 µM, the TGI [19] was 6.89 µM and 15.3 µM and the GI50 [20] was 4.14 µM and 14.5 µM. For the same molecule, the TGI [20] was 10.9 µM and 40.2 µM, the GI50 [21] was 3.55 µM and 2.52 µM and the TGI [21] was 33.5 µM and 23.3 µM. For the same molecule, the GI50 [22] was 0.991 µM and 2.88 µM, the TGI [22] was 7.27 µM and 14.2 µM and the GI50 [23] was 0.165 µM and 0.223 µM. For the same molecule, the TGI [23] was 3.1 µM and 0.973 µM, the GI50 [24] was 0.0252 µM and 0.139 µM and the TGI [24] was 1.74 µM and 1.27 µM. For the same molecule, the GI50 [25] was 1.18 µM and 2.66 µM, the TGI [25] was 11.5 µM and 21.3 µM and the GI50 [26] was 0.515 µM and 0.601 µM. For the same molecule, the TGI [26] was 3.66 µM and 10 µM, the GI50 [27] was 5.45 µM and the TGI [27] was 33.5 µM. For the same molecule, the GI50 [28] was 0.0148 µM and 0.0458 µM, the TGI [28] was 3.52 µM and 1.04 µM and the GI50 [29] was 0.0614 µM and 0.194 µM. The TGI [29] was 3.98 µM and 12 µM, the GI50 [30] was 0.618 µM and 2.17 µM and the TGI [30] was 4.64 µM and 12.4 µM. For the same molecule, the GI50 [31] was 1.44 µM and 2.87 µM, the TGI [31] was 7.22 µM and 14.6 µM and the GI50 [32] was 0.224 µM and 0.469 µM. The TGI [32] was 8.33 µM and 10.3 µM, the GI50 [33] was 0.218 µM and 0.205 µM and the TGI [33] was 4.27 µM and 2.55 µM. For the same molecule, the GI50 [34] was 0.514 µM and 0.403 µM, the TGI [34] was 6.31 µM and 12.7 µM and the GI50 [35] was 0.763 µM and 2.25 µM. For the same molecule, the TGI [35] was 3.75 µM and 8 µM, the TGI [36] was 7.26 µM and 27 µM and the GI50 [37] was 3.61 µM and 4.27 µM. The TGI [37] was 10.3 µM and 22.6 µM, the GI50 [38] was 4.32 µM and 18.6 µM and the TGI [38] was 11.1 µM and 45 µM. The GI50 [39] was 0.0462 µM and 0.0821 µM, the TGI [39] was 4.35 µM and 10.3 µM and the GI50 [40] was 0.331 µM and 2.69 µM. The TGI [40] was 4.53 µM and 14.4 µM, the GI50 [41] was 3.74 µM and 2.64 µM and the TGI [41] was 16.9 µM and 20.9 µM. For the same molecule, the GI50 [42] was 2.09 µM and 5.28 µM, the TGI [42] was 13.8 µM and 18.6 µM and the GI50 [43] was 5.73 µM and 17.9 µM. For the same molecule, the TGI [43] was 21.6 µM and 80.3 µM, the GI50 [44] was 5.72 µM and 3.57 µM and the TGI [44] was 17 µM and 31 µM. For the same molecule, the GI50 [45] was 4.62 µM and 9.91 µM, the TGI [45] was 15 µM and 28.7 µM and the GI50 [46] was 1.07 µM and 2.01 µM. The TGI [46] was 5.7 µM and 7.21 µM, the GI50 [47] was 0.022 µM and 0.05 µM and the TGI [47] was 1.42 µM and 10.3 µM. The GI50 [48] was 3.88 µM and 3.81 µM, the TGI [48] was 8.49 µM and 15.8 µM and the TGI [49] was 3.28 µM and 13.1 µM. The GI50 [50] was 0.877 µM and 1.74 µM, the TGI [50] was 5.61 µM and 14.4 µM and the GI50 [51] was 1.35 µM and 4.12 µM. The TGI [51] was 9.17 µM and 23.7 µM, the GI50 [52] was 1.8 µM and 11.2 µM and the TGI [52] was 6.99 µM and 23.5 µM. For the same molecule, the GI50 [53] was 1.86 µM and 5.29 µM, the TGI [53] was 7.31 µM and 31.1 µM and the GI50 [54] was 0.559 µM. The TGI [54] was 4.56 µM, the GI50 [55] was 0.358 µM and 0.671 µM and the TGI [55] was 5.94 µM and 6.49 µM. For the same molecule, the GI50 [56] was 0.00579 µM and 0.0157 µM, the TGI [56] was 0.0926 µM and 0.0572 µM and the GI50 [57] was 2.46 µM and 9.46 µM. The TGI [57] was 7.09 µM and 23.3 µM, the GI50 [58] was 3.91 µM and 2.72 µM and the TGI [58] was 28.5 µM and 13.1 µM.
